Measurements reported in article PMC8537658 (Pharmaceuticals, 2021).
Where two headings read alike, the source gives them in different places.

Experiments:
SARS-CoV-2 RBD peptide = SARS-CoV-2 RBD peptide (Severe acute respiratory syndrome coronavirus 2, UniProt P0DTC2); assay: biochemical; type: binding; conditions: for koff: read-out: RBD kdis; for kon: read-out: RBD kon
ACE2 = molecular target: T1, ACE2 (Homo sapiens, UniProt Q9BYF1); assay: Bio-layer interferometry, binding to immobilized ACE2-His; conditions: for kon: read-out: ACE2 kon; for Kd: 1:1 binding model, KD = kdis/kon; for koff: read-out: ACE2 kdis
T1 construct: purchased Sino Biological
T1 sequence (Q9BYF1 18-805): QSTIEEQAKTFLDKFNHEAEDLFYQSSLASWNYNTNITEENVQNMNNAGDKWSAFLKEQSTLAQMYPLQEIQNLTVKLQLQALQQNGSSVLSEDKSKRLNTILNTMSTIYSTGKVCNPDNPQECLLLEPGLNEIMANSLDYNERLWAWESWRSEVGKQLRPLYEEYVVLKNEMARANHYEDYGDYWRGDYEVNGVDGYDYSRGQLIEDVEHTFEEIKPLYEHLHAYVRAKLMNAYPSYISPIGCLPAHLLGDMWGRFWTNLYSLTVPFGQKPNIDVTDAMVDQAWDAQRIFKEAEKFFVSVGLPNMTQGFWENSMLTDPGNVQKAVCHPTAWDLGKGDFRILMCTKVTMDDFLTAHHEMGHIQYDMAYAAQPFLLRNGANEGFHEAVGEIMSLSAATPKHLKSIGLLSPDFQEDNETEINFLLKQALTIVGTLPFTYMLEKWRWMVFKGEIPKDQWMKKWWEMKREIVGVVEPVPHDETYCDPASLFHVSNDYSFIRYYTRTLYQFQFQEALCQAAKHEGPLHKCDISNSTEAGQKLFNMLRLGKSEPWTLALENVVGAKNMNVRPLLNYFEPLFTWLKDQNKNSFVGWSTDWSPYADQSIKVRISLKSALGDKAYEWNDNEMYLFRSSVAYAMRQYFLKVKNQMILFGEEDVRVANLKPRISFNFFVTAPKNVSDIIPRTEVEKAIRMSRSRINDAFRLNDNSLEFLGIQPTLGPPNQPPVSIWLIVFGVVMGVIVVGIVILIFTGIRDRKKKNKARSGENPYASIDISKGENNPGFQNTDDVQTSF

binding of RBD to ACE2 = binding of RBD to ACE2 (Severe acute respiratory syndrome coronavirus 2, UniProt P0DTC2); assay: biochemical; parameters: species or system SARS-CoV-2; human
[1] = association rate, bio-layer interferometry
[2] = dissociation rate, bio-layer interferometry

SMILES	interaction with the RBD (result in words) (SARS-CoV-2 RBD peptide)	kon (ACE2; [1]) [M⁻¹ s⁻¹]	Kd (ACE2; bio-layer interferometry) [µM]	koff (ACE2; [2]) [s⁻¹]	Kd (SARS-CoV-2 RBD peptide; KD for RBD) [M]	Kd (SARS-CoV-2 RBD peptide; RBD KD (M)) [M]	koff (SARS-CoV-2 RBD peptide) [s⁻¹]	kon (SARS-CoV-2 RBD peptide) [M⁻¹ s⁻¹]	IC50 (binding of RBD to ACE2) [µM]	koff (ACE2) [s⁻¹]	kon (ACE2) [M⁻¹ s⁻¹]
COc1cc(/C=C/C(=O)CC(=O)/C=C/c2ccc(O)c(OC)c2)ccc1O [Curcumin]	No interaction	600	20.3	0.0122							
CN(C)c1ccc2nc3ccc(=[N+](C)C)cc-3sc2c1 [Methylene blue]			475								
COc1ccc2nc3cc(Cl)ccc3c(Nc3cc(CN4CCCC4)c(O)c(CN4CCCC4)c3)c2n1 [Pyronaridine]		584	51.3	0.0299	5.7e-05	5.68e-05	0.0339	598	49.7 ± 4.19		
C[C@H]1[C@H](N2CCS(=O)(=O)CC2)O[C@@H]2O[C@@]3(C)CC[C@H]4[C@H](C)CC[C@@H]1[C@@]24OO3 [Artemisone]		971	681	0.661	3.6e-07	3.63e-07		8.4e+07	63.1 ± 9.63		
OC(c1cc(C(F)(F)F)nc2c(C(F)(F)F)cccc12)C1CCCCN1 (stereo not shown) [Mefloquine]						0.00605	0.861	142		0.0312	716
C[C@H]1[C@H](N2CCSCC2)O[C@@H]2O[C@@]3(C)CC[C@H]4[C@H](C)CC[C@@H]1[C@@]24OO3 [Artemiside]	No interaction	4290	124	0.533							
CCN(CC)Cc1cc(Nc2ccnc3cc(Cl)ccc23)ccc1O [Amodiaquine]			31.3								
C[C@H]1[C@H](OC(=O)CCC(=O)O)O[C@@H]2O[C@@]3(C)CC[C@H]4[C@H](C)CC[C@@H]1[C@@]24OO3 [Artesunate]	No interaction									0.0907	1290
C=C[C@H]1C[N@@]2CC[C@H]1C[C@H]2[C@H](O)c1ccnc2ccc(OC)cc12 [Quinine]	No interaction	877	9.35	0.00819							
